The text below walks through data of ChEMBL document CHEMBL1146463, “A pair of new C-21 steroidal glycoside epimers from the roots of Cynanchum paniculatum” (2004).

≈ marks a conversion by molar mass, not a printed value.

This assay deals with Staphylococcus aureus. Briefly: Antibacterial activity against methicillin-resistant Staphylococcus aureus after 20 hrs. Format: functional.
Turning to `CC(=O)OCC1=C(C(=O)O)N2C(=O)[C@@H](NC(=O)CSc3ccncc3)[C@H]2SC1` [CEPHAPIRIN], the minimal inhibitory concentration (MIC) (in general, the lowest concentration that inhibits growth of the organism) worked out at 10.5 µg/mL (≈ 24.8 µM).

In the case of `CO[C@@H]1C[C@H](O[C@H]2CC[C@@]3(C)C(=CC[C@H]4C(=O)O[C@@H]5CO[C@]6(C)O[C@H](O)/C(=C/C[C@@H]43)[C@H]56)C2)O[C@H](C)[C@H]1O` [PANICULATUMOSIDE A], it took 180 µg/mL (≈ 345 µM) to inhibit growth (MIC).

As to `CO[C@@H]1C[C@H](O[C@H]2CC[C@@]3(C)C(=CC[C@H]4C(=O)O[C@H]5CO[C@]6(C)O[C@@H](O)/C(=C/C[C@@H]43)[C@H]56)C2)O[C@H](C)[C@H]1O` [PANICULATUMOSIDE B], it took 149 µg/mL (≈ 285 µM) to inhibit growth (MIC).
